# Columns and labels:
# Format in all cases: in vivo
# [1] = system: field corn (Zea mays L., var. Dekalb 535, CORN); experiment: Post-emerge greenhouse test, crop damage rating; conditions: 14 days after application; for crop damage rating CORN: scale 0-100
# Method in brief: (§1)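 Scores use a 0 (no damage) to 100 (complete kill) scale, taken 14 days after a foliar spray. Acetone solutions with 0.25% v/v non-ionic surfactant were applied by track sprayer at 187 l/ha and 63-1000 g ai/ha to bottom-watered 2-3 leaf plants.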
# [2] = system: upland rice (Oryza sp., var.Tebonnet, RICE); experiment: Post-emerge greenhouse test, crop damage rating; conditions: 14 days after application; for crop damage rating RICE: scale 0-100
# Method in brief: as §1
# [3] = system: field corn (Zea mays L., var. Dekalb 535, CORN); experiment: Pre-emerge greenhouse test, crop damage rating; conditions: 14 days after application, rating scale 0-100
# Method in brief: (§2)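 Visual 0–100 injury rating (100 = all plants dead) taken 14 days after treatment. Rates of 125–1000 g ai/ha in acetone, 187 l/ha, were sprayed onto soil one day post-sowing; pots were surface-watered to incorporate, then bottom-watered.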
# [4] = system: upland rice (Oryza sp., var.Tebonnet, RICE); experiment: Pre-emerge greenhouse test, crop damage rating; conditions: 14 days after application, rating scale 0-100
# Method in brief: as §2
# [5] = system: green foxtail (Setaria viridis, SETVI); experiment: Post-emerge greenhouse herbicide test, phytotoxicity rating; conditions: 14 days after application; for phytotoxicity rating SETVI: scale 0-100
# Method in brief: as §1
# [6] = system: lambsquarters (Chenopodium album, CHEAL); experiment: as above; conditions: 14 days after application; for phytotoxicity rating CHEAL: scale 0-100
# Method in brief: as §1
# [7] = system: velvetleaf (Abutilon theophrasti, ABUTH); experiment: as above; conditions: 14 days after application; for phytotoxicity rating ABUTH: scale 0-100
# Method in brief: as §1
# [8] = system: ivyleaf morningglory (Ipomoea hederacea, IPOHE); experiment: as above; conditions: 14 days after application; for phytotoxicity rating IPOHE: scale 0-100
# Method in brief: as §1
# [9] = system: barnyardgrass (Echinochloa crusgalli, ECHCG); experiment: as above; conditions: 14 days after application; for phytotoxicity rating ECHCG: scale 0-100
# Method in brief: as §1
# [10] = system: large crabgrass (Digitaria sanguinalis, DIGSA); experiment: as above; conditions: 14 days after application; for phytotoxicity rating DIGSA: scale 0-100
# Method in brief: as §1
# [11] = system: redroot pigweed (Amaranthus retroflexus, AMARE); experiment: as above; conditions: 14 days after application; for phytotoxicity rating AMARE: scale 0-100
# Method in brief: as §1
# [12] = system: Johnsongrass (Sorghum halepense, SORHA); experiment: as above; conditions: 14 days after application; for phytotoxicity rating SORHA: scale 0-100
# Method in brief: as §1
# [13] = system: green foxtail (Setaria viridis, SETVI); experiment: Pre-emerge greenhouse herbicide test, phytotoxicity rating; conditions: 14 days after application, rating scale 0-100
# Method in brief: as §2
# [14] = system: sicklepod (Cassia obtusifolia, CASOB); experiment: as above; conditions: 14 days after application, rating scale 0-100
# Method in brief: as §2
# [15] = system: lambsquarters (Chenopodium album, CHEAL); experiment: as above; conditions: 14 days after application, rating scale 0-100
# Method in brief: as §2
# [16] = system: velvetleaf (Abutilon theophrasti, ABUTH); experiment: as above; conditions: 14 days after application, rating scale 0-100
# Method in brief: as §2
# [17] = system: ivyleaf morningglory (Ipomoea hederacea, IPOHE); experiment: as above; conditions: 14 days after application, rating scale 0-100
# Method in brief: as §2
# [18] = system: common ragweed (Ambrosia artemisiifolia L., AMBEL); experiment: as above; conditions: 14 days after application, rating scale 0-100
# Method in brief: as §2
# [19] = system: barnyardgrass (Echinochloa crusgalli, ECHCG); experiment: as above; conditions: 14 days after application, rating scale 0-100
# Method in brief: as §2
# [20] = system: large crabgrass (Digitaria sanguinalis, DIGSA); experiment: as above; conditions: 14 days after application, rating scale 0-100
# Method in brief: as §2
# [21] = system: redroot pigweed (Amaranthus retroflexus, AMARE); experiment: as above; conditions: 14 days after application, rating scale 0-100
# Method in brief: as §2
# [22] = system: Johnsongrass (Sorghum halepense, SORHA); experiment: as above; conditions: 14 days after application, rating scale 0-100
# Method in brief: as §2
# [23] = system: soybean (Glycine max L., var. Pella 86, SOY); experiment: Pre-emerge greenhouse test, crop damage rating; set-up: key to SOY crop damage rating: 0 = no damage, 100 = complete death of all plants; conditions: 14 days after application, rating scale 0-100
# Method in brief: as §2
# [24] = system: common ragweed (Ambrosia artemisiifolia L., AMBEL); experiment: Post-emerge greenhouse herbicide test, phytotoxicity rating; conditions: 14 days after application; for phytotoxicity rating AMBEL: scale 0-100
# Method in brief: as §1
# [25] = system: soybean (Glycine max L., var. Pella 86, SOY); experiment: Post-emerge greenhouse test, crop damage rating; set-up: key to crop damage rating SOY: 0-100 scale: 0 = no damage, 100 = complete death of all plants; conditions: 14 days after application; for crop damage rating SOY: scale 0-100
# Method in brief: as §1
smiles,measurement,setting,value
O=c1n(-c2cc(Oc3ncc([N+](=O)[O-])s3)c(Cl)cc2F)c(=S)n2n1CCCC2 [Compound 8-36],crop damage rating CORN,[1]; rate 63 g ai/ha,10
same,crop damage rating CORN,[1]; rate 250 g ai/ha,10
same,crop damage rating RICE,[2]; rate 63 g ai/ha,40
same,crop damage rating RICE,[2]; rate 250 g ai/ha,30
same,CORN crop damage rating,[3]; Rate 125 g al/ha,0
same,CORN crop damage rating,[3]; Rate 250 g al/ha,20
same,RICE crop damage rating,[4]; Rate 125 g al/ha,30
same,RICE crop damage rating,[4]; Rate 250 g al/ha,70
same,phytotoxicity rating SETVI,[5]; rate 63 g ai/ha,0
same,phytotoxicity rating SETVI,[5]; rate 250 g ai/ha,30
same,phytotoxicity rating CHEAL,[6]; rate 63 g ai/ha,95
same,phytotoxicity rating CHEAL,[6]; rate 250 g ai/ha,99
same,phytotoxicity rating ABUTH,[7]; rate 63 g ai/ha,100
same,phytotoxicity rating ABUTH,[7]; rate 250 g ai/ha,100
same,phytotoxicity rating IPOHE,[8]; rate 63 g ai/ha,100
same,phytotoxicity rating IPOHE,[8]; rate 250 g ai/ha,95
same,phytotoxicity rating ECHCG,[9]; rate 63 g ai/ha,50
same,phytotoxicity rating ECHCG,[9]; rate 250 g ai/ha,40
same,phytotoxicity rating DIGSA,[10]; rate 63 g ai/ha,30
same,phytotoxicity rating DIGSA,[10]; rate 250 g ai/ha,60
same,phytotoxicity rating AMARE,[11]; rate 63 g ai/ha,100
same,phytotoxicity rating AMARE,[11]; rate 250 g ai/ha,100
same,phytotoxicity rating SORHA,[12]; rate 63 g ai/ha,30
same,phytotoxicity rating SORHA,[12]; rate 250 g ai/ha,90
same,SETVI phytotoxicity rating,[13]; Rate 125 g al/ha,80
same,SETVI phytotoxicity rating,[13]; Rate 250 g al/ha,99
same,CASOB phytotoxicity rating,[14]; Rate 125 g al/ha,90
same,CASOB phytotoxicity rating,[14]; Rate 250 g al/ha,70
same,CHEAL phytotoxicity rating,[15]; Rate 125 g al/ha,100
same,CHEAL phytotoxicity rating,[15]; Rate 250 g al/ha,100
same,ABUTH phytotoxicity rating,[16]; Rate 125 g al/ha,100
same,ABUTH phytotoxicity rating,[16]; Rate 250 g al/ha,100
same,IPOHE phytotoxicity rating,[17]; Rate 125 g al/ha,90
same,IPOHE phytotoxicity rating,[17]; Rate 250 g al/ha,70
same,AMBEL phytotoxicity rating,[18]; Rate 125 g al/ha,90
same,AMBEL phytotoxicity rating,[18]; Rate 250 g al/ha,100
same,ECHCG phytotoxicity rating,[19]; Rate 125 g al/ha,0
same,ECHCG phytotoxicity rating,[19]; Rate 250 g al/ha,70
same,DIGSA phytotoxicity rating,[20]; Rate 125 g al/ha,70
same,DIGSA phytotoxicity rating,[20]; Rate 250 g al/ha,80
same,AMARE phytotoxicity rating,[21]; Rate 125 g al/ha,100
same,AMARE phytotoxicity rating,[21]; Rate 250 g al/ha,100
same,SORHA phytotoxicity rating,[22]; Rate 125 g al/ha,20
same,SORHA phytotoxicity rating,[22]; Rate 250 g al/ha,50
same,SOY crop damage rating,[23]; Rate 125 g al/ha,0
same,SOY crop damage rating,[23]; Rate 250 g al/ha,100
same,phytotoxicity rating AMBEL,[24]; rate 63 g ai/ha,20
same,phytotoxicity rating AMBEL,[24]; rate 250 g ai/ha,20
same,crop damage rating SOY,[25]; rate 63 g ai/ha,30
same,crop damage rating SOY,[25]; rate 250 g ai/ha,90
Cn1nc(-c2cc(Oc3ccc(C#N)cn3)c(Cl)cc2F)c(Cl)c1C(F)(F)F [Compound 1-4],CORN crop damage rating (0-100),[1]; 63 g al/ha,0
same,CORN crop damage rating (0-100),[1]; 500 g al/ha,0
same,RICE crop damage rating (0-100),[2]; 63 g al/ha,20
same,RICE crop damage rating (0-100),[2]; 500 g al/ha,50
same,crop damage rating CORN,[3]; 125 g ai/ha,10
same,crop damage rating CORN,[3]; 500 g ai/ha,0
same,crop damage rating RICE,[4]; 125 g ai/ha,30
same,SETVI phytotoxicity rating (0-100),[5]; 63 g al/ha,0
same,SETVI phytotoxicity rating (0-100),[5]; 500 g al/ha,70
same,CHEAL phytotoxicity rating (0-100),[6]; 63 g al/ha,0
same,CHEAL phytotoxicity rating (0-100),[6]; 500 g al/ha,100
same,ABUTH phytotoxicity rating (0-100),[7]; 63 g al/ha,30
same,ABUTH phytotoxicity rating (0-100),[7]; 500 g al/ha,90
same,IPOHE phytotoxicity rating (0-100),[8]; 63 g al/ha,70
same,IPOHE phytotoxicity rating (0-100),[8]; 500 g al/ha,100
same,ECHCG phytotoxicity rating (0-100),[9]; 63 g al/ha,0
same,ECHCG phytotoxicity rating (0-100),[9]; 500 g al/ha,50
same,DIGSA phytotoxicity rating (0-100),[10]; 63 g al/ha,20
same,DIGSA phytotoxicity rating (0-100),[10]; 500 g al/ha,40
same,AMARE phytotoxicity rating (0-100),[11]; 63 g al/ha,100
same,AMARE phytotoxicity rating (0-100),[11]; 500 g al/ha,100
same,SORHA phytotoxicity rating (0-100),[12]; 63 g al/ha,40
same,SORHA phytotoxicity rating (0-100),[12]; 500 g al/ha,80
same,phytotoxicity rating SETVI,[13]; 125 g ai/ha,90
same,phytotoxicity rating SETVI,[13]; 500 g ai/ha,99
same,phytotoxicity rating CASOB,[14]; 125 g ai/ha,0
same,phytotoxicity rating CASOB,[14]; 500 g ai/ha,0
same,phytotoxicity rating CHEAL,[15]; 125 g ai/ha,90
same,phytotoxicity rating CHEAL,[15]; 500 g ai/ha,95
same,phytotoxicity rating ABUTH,[16]; 125 g ai/ha,0
same,phytotoxicity rating ABUTH,[16]; 500 g ai/ha,80
same,phytotoxicity rating IPOHE,[17]; 125 g ai/ha,0
same,phytotoxicity rating IPOHE,[17]; 500 g ai/ha,30
same,phytotoxicity rating AMBEL,[18]; 125 g ai/ha,0
same,phytotoxicity rating AMBEL,[18]; 500 g ai/ha,20
same,phytotoxicity rating ECHCG,[19]; 125 g ai/ha,0
same,phytotoxicity rating ECHCG,[19]; 500 g ai/ha,20
same,phytotoxicity rating DIGSA,[20]; 125 g ai/ha,50
same,phytotoxicity rating DIGSA,[20]; 500 g ai/ha,50
same,phytotoxicity rating AMARE,[21]; 125 g ai/ha,100
same,phytotoxicity rating AMARE,[21]; 500 g ai/ha,100
same,phytotoxicity rating SORHA,[22]; 125 g ai/ha,20
same,phytotoxicity rating SORHA,[22]; 500 g ai/ha,95
same,crop damage rating SOY,[23]; 125 g ai/ha,10
same,crop damage rating SOY,[23]; 500 g ai/ha,0
same,AMBEL phytotoxicity rating (0-100),[24]; 63 g al/ha,20
same,AMBEL phytotoxicity rating (0-100),[24]; 500 g al/ha,70
same,SOY crop damage rating (0-100),[25]; 63 g al/ha,0
same,SOY crop damage rating (0-100),[25]; 500 g al/ha,80
